According to ChEMBL document CHEMBL5625248, “Identification of unique indolylcyanoethylenyl sulfonylanilines as novel structural scaffolds of potential antibacterial agents” (Eur J Med Chem, 2023):
≈ marks a conversion by molar mass, not a printed value.

Assays:
Format in all cases: functional
Staphylococcus aureus [1] = experiment: Antibacterial activity against methicilin-resistant Staphylococcus aureus N315 assessed as inhibition of bacterial growth incubated for 18 hrs by two fold broth microdilution assay
Acinetobacter baumannii = experiment: Antibacterial activity against Acinetobacter baumannii assessed as inhibition of bacterial growth incubated for 18 hrs by two fold broth microdilution assay
Escherichia coli [2] = experiment: Antibacterial activity against Escherichia coli assessed as inhibition of bacterial growth incubated for 18 hrs by two fold broth microdilution assay
Pseudomonas aeruginosa [3] = experiment: Antibacterial activity against Pseudomonas aeruginosa assessed as inhibition of bacterial growth incubated for 18 hrs by two fold broth microdilution assay
Pseudomonas aeruginosa [4] = experiment: Antibacterial activity against Pseudomonas aeruginosa ATCC 27853 assessed as inhibition of bacterial growth incubated for 18 hrs by two fold broth microdilution assay
Staphylococcus aureus [5] = experiment: Antibacterial activity against Staphylococcus aureus assessed as inhibition of bacterial growth incubated for 18 hrs by two fold broth microdilution assay
Enterococcus faecalis = experiment: Antibacterial activity against Enterococcus faecalis assessed as inhibition of bacterial growth incubated for 18 hrs by two fold broth microdilution assay
Escherichia coli [6] = experiment: Antibacterial activity against Escherichia coli ATCC 25922 assessed as inhibition of bacterial growth incubated for 18 hrs by two fold broth microdilution assay
Staphylococcus aureus [7] = experiment: Antibacterial activity against Staphylococcus aureus ATCC 25923 assessed as inhibition of bacterial growth incubated for 18 hrs by two fold broth microdilution assay
Staphylococcus aureus [8] = experiment: Antibacterial activity against Staphylococcus aureus ATCC 29213 assessed as inhibition of bacterial growth incubated for 18 hrs by two fold broth microdilution assay
Klebsiella pneumoniae = experiment: Antibacterial activity against Klebsiella pneumoniae assessed as inhibition of bacterial growth incubated for 18 hrs by two fold broth microdilution assay

Compound	MIC (Staphylococcus aureus [1]) [µg/mL]	MIC (Acinetobacter baumannii) [µg/mL]	MIC (Escherichia coli [2]) [µg/mL]	MIC (Pseudomonas aeruginosa [3]) [µg/mL]	MIC (Pseudomonas aeruginosa [4]) [µg/mL]	MIC (Staphylococcus aureus [5]) [µg/mL]	MIC (Enterococcus faecalis) [µg/mL]	MIC (Escherichia coli [6]) [µg/mL]	MIC (Staphylococcus aureus [7]) [µg/mL]	MIC (Staphylococcus aureus [8]) [µg/mL]	MIC (Klebsiella pneumoniae) [µg/mL]
CCCCCCCCn1cc(/C=C(\C#N)S(=O)(=O)c2ccc(NC(C)=O)cc2)c2ccccc21	256 (≈ 536 µM)	8 (≈ 16.7 µM)	256 (≈ 536 µM)	64 (≈ 134 µM)	16 (≈ 33.5 µM)	8 (≈ 16.7 µM)	16 (≈ 33.5 µM)	32 (≈ 67 µM)	4 (≈ 8.37 µM)	16 (≈ 33.5 µM)	4 (≈ 8.37 µM)
C=CCn1cc(/C=C(\C#N)S(=O)(=O)c2ccc(NC(C)=O)cc2)c2ccccc21	8 (≈ 19.7 µM)	2 (≈ 4.93 µM)	8 (≈ 19.7 µM)	8 (≈ 19.7 µM)	16 (≈ 39.5 µM)	256 (≈ 631 µM)	8 (≈ 19.7 µM)	1 (≈ 2.47 µM)	4 (≈ 9.86 µM)	256 (≈ 631 µM)	8 (≈ 19.7 µM)
N#C/C(=C\c1cn(CC2CC2)c2ccccc12)S(=O)(=O)c1ccc(N)cc1	128 (≈ 339 µM)	64 (≈ 170 µM)	256 (≈ 678 µM)	64 (≈ 170 µM)	16 (≈ 42.4 µM)	32 (≈ 84.8 µM)	128 (≈ 339 µM)	16 (≈ 42.4 µM)	64 (≈ 170 µM)	32 (≈ 84.8 µM)	16 (≈ 42.4 µM)
Cn1cc(/C=C(\C#N)S(=O)(=O)c2ccc(N)cc2)c2ccccc21	128 (≈ 379 µM)	2 (≈ 5.93 µM)	64 (≈ 190 µM)	64 (≈ 190 µM)	64 (≈ 190 µM)	256 (≈ 759 µM)	256 (≈ 759 µM)	2 (≈ 5.93 µM)	128 (≈ 379 µM)	32 (≈ 94.8 µM)	4 (≈ 11.9 µM)
CC(=O)Nc1ccc(S(=O)(=O)/C(C#N)=C/c2cn(Cc3ccccc3Cl)c3ccccc23)cc1	16 (≈ 32.7 µM)	8 (≈ 16.3 µM)	2 (≈ 4.08 µM)	2 (≈ 4.08 µM)	4 (≈ 8.16 µM)	2 (≈ 4.08 µM)	4 (≈ 8.16 µM)	1 (≈ 2.04 µM)	4 (≈ 8.16 µM)	8 (≈ 16.3 µM)	2 (≈ 4.08 µM)
N#C/C(=C\c1cn(Cc2ccc(Cl)cc2Cl)c2ccccc12)S(=O)(=O)c1ccc(N)cc1	256 (≈ 531 µM)	16 (≈ 33.2 µM)	256 (≈ 531 µM)	64 (≈ 133 µM)	32 (≈ 66.3 µM)	256 (≈ 531 µM)	128 (≈ 265 µM)	64 (≈ 133 µM)	32 (≈ 66.3 µM)	64 (≈ 133 µM)	4 (≈ 8.29 µM)
C#CCn1cc(/C=C(\C#N)S(=O)(=O)c2ccc(N)cc2)c2ccccc21	2 (≈ 5.53 µM)	0.5 (≈ 1.38 µM)	128 (≈ 354 µM)	0.5 (≈ 1.38 µM)	4 (≈ 11.1 µM)	4 (≈ 11.1 µM)	2 (≈ 5.53 µM)	256 (≈ 708 µM)	16 (≈ 44.3 µM)	2 (≈ 5.53 µM)	8 (≈ 22.1 µM)
CN(C)CCn1cc(/C=C(\C#N)S(=O)(=O)c2ccc(N)cc2)c2ccccc21	128 (≈ 324 µM)	16 (≈ 40.6 µM)	128 (≈ 324 µM)	64 (≈ 162 µM)	32 (≈ 81.1 µM)	2 (≈ 5.07 µM)	64 (≈ 162 µM)	256 (≈ 649 µM)	2 (≈ 5.07 µM)	8 (≈ 20.3 µM)	128 (≈ 324 µM)
N#C/C(=C\c1cn(CCN2CCOCC2)c2ccccc12)S(=O)(=O)c1ccc(N)cc1	16 (≈ 36.7 µM)	64 (≈ 147 µM)	16 (≈ 36.7 µM)	64 (≈ 147 µM)	64 (≈ 147 µM)	32 (≈ 73.3 µM)	256 (≈ 586 µM)	0.5 (≈ 1.15 µM)	32 (≈ 73.3 µM)	64 (≈ 147 µM)	128 (≈ 293 µM)
N#C/C(=C\c1cn(Cc2ccc(Cl)c(Cl)c2)c2ccccc12)S(=O)(=O)c1ccc(N)cc1	16 (≈ 33.2 µM)	4 (≈ 8.29 µM)	256 (≈ 531 µM)	31 (≈ 64.3 µM)	64 (≈ 133 µM)	128 (≈ 265 µM)	128 (≈ 265 µM)	0.5 (≈ 1.04 µM)	16 (≈ 33.2 µM)	4 (≈ 8.29 µM)	4 (≈ 8.29 µM)
CC(=O)Nc1ccc(S(=O)(=O)/C(C#N)=C/c2cn(Cc3ccc(Cl)cc3Cl)c3ccccc23)cc1	64 (≈ 122 µM)	8 (≈ 15.3 µM)	256 (≈ 488 µM)	64 (≈ 122 µM)	32 (≈ 61 µM)	16 (≈ 30.5 µM)	256 (≈ 488 µM)	64 (≈ 122 µM)	64 (≈ 122 µM)	8 (≈ 15.3 µM)	4 (≈ 7.63 µM)
